Test results published in patent US5739131A, “Benzene derivatives and pharmaceutical composition” (Kureha Chemical Industry Co., Ltd., priority 1994, dated 1998).
Where two headings read alike, the source gives them in different places.

Legend:
[1] = test system: kidney disease model rats; experiment: Action to depress blood pressure (tail cuff method); assay type: in vivo, Sprague-Dawley female rats; details: systolic, average, 20 mg/kg per os, two days from administration; control (water) 203
Protocol: The compounds of the present invention and the reference substance were forcedly administered per os to kidney disease model rats, and the action to depress blood pressure was observed. The kidney disease model rats were prepared by ligature of branches of renal artery in accordance with the conventional method, that is, the left hilum renalis of Sprague-Dawley female rats was exposed under anesthesia, and one of four secondary branches of renal artery was left unligated, while the remaining three branches were ligated, respectively. After a week, the hilum renalis (artery, vein, and ureter) of the right kidney were further ligated to thereby prepare the rats whose renal function was lowered to approximately 1/8 of the normal function. Each group consisted of eight rats. The drugs to be tested (20 mg/kg) were administered to each administering group, and only water was administered to control group. After two days from the administration, the systolic blood pressure was measured by the tail cuff method using a blood pressure measuring apparatus (UR5000; Ueda).

mice = experiment: Acute toxicity, single oral dose; assay type: in vivo
Protocol: Five-week-old ICR female mice (5 mice per group) were bred for acclimation for a week. Then, the compounds of the present invention were dissolved or dispersed in an aqueous solution of 0.5% methylcellulose, and orally administered to the mice in a single dosage (500 mg/kg).

[2] = molecular target: T1, angiotensin II receptor subtype 1 (AT1) (Oryctolagus cuniculus, UniProt P34976); experiment: Binding assay, angiotensin II receptor subtype 1 (AT1); parameters: species or system rabbit (adrenal glands); details: for inhibition at 100 µM: AT1, rabbit adrenal glands
T1 construct: receptor: from adrenal glands in rabbits; from tissue; host or cells: rabbit adrenal glands
T1 sequence (P34976 1-359): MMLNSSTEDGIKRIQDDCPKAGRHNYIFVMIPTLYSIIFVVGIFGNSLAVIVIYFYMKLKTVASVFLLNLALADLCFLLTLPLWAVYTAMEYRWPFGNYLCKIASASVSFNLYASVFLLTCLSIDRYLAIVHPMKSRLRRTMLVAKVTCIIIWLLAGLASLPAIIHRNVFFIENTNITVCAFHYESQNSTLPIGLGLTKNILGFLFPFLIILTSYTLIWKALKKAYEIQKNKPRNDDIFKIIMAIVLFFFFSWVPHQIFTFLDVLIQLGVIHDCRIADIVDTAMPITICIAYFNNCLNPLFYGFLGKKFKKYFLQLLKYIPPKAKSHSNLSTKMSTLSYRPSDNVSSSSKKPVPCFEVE
Protocol: (§1) In this Example, the affinity to the angiotensin II receptor subtype 1 or subtype 2 was evaluated by a binding assay in accordance with the method described in Biochem. Pharmacol., 33, 4057-4062 (1984).
(§2) Specifically, the measurement of the total binding in the presence of each drug was performed as follows:
(§3) A mixture (final volume=0.25 ml) of a drug in a given concentration (the drug was dissolved in DMSO, and diluted to a double volume with a buffer attached to a drug discovery system to prepare sample for the assay; 0.025 ml), a tracer (0.025 ml), and receptors (0.2 ml) was incubated [in the case of the angiotensin II receptor subtype 1 (AT1), at room temperature for 3 hours, and in the case of the subtype 2 (AT2), at 37° C. for 1 hour]. Then, the reaction mixture was filtered with suction (GF/C filter was used in AT1, and GF/B filter was used in AT2). The filter papers after filtration with suction (the tracer bound to the receptors) were counted by a γ-well counter (ARC-500, Aloka). The non-specific bindings were measured by repeating the above method, except that a large excess amount of a displacer was added. The specific binding of the drug in the given concentration was calculated by subtracting the non-specific binding from the total binding, respectively.
(§4) In AT1 and AT2, the percentages to inhibit the bindings of radioactive ligands (tracer) to receptors by the drugs to be tested (IC50 value of concentration to show 50% inhibition, or binding inhibition % in 100 μM) were measured, using the drugs to be tested and control drugs in the given concentration.

[3] = molecular target: T2, angiotensin II receptor subtype 2 (AT2) (Bos taurus, UniProt G5E6F7); experiment: Binding assay, angiotensin II receptor subtype 2 (AT2); parameters: species or system bovine (cerebellar cortex); details: read-out: Binding inhibition % in 100 μm, AT2
T2 construct: receptor: from cerebellar cortex in bovine; from tissue; host or cells: bovine cerebellar cortex
T2 sequence (G5E6F7 1-362): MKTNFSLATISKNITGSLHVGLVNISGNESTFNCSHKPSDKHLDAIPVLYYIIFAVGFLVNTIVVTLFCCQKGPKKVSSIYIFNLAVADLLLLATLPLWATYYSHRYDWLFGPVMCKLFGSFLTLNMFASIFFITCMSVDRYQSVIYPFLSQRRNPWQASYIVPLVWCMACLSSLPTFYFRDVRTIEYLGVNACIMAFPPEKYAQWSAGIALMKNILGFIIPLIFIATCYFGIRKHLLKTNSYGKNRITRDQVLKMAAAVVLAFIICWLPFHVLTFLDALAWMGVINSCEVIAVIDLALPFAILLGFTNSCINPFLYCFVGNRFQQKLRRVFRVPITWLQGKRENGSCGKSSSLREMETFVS
Protocol: as §1, §2, §3, §4
receptor: from cerebellar cortex in bovine
tracer: ^125 ITyr^4angiotensin II
control drug: angiotensin II (human)
(displacer): angiotensin II (human)

[4] = test system: kidney disease model rats; experiment: Renal function indicatory value (action to kidney diseases); assay type: in vivo, Sprague-Dawley female rats; details: 20 mg/kg/day per os, two weeks; for Creatinine clearance: 24 hours urine, control 0.20; for Creatinine / Urea nitrogen: serum; for Creatinine: control 2.0; for Urea nitrogen: control 100
Protocol: The kidney disease model rats were prepared as in Example 115. Twenty-five groups (8 rats per group) were sleeked in a manner so that there were no major differences between each group in the serum creatinine value and the urea nitrogen value indicating renal function. The rats in each group were allowed to freely take up feed and water. […] To the rats in the control group, only water was forcedly administered per os every day. After two weeks, 0.2 ml of blood was collected from the carotid artery of the rat under anesthesia, and centrifuged to obtain serum. Using 25 μl of the serum, serum creatinine (Scr) was measured by a creatinine analytical instrument (Beckman). Using 10 μl of the serum, urea nitrogen (BUN) was measured by a BUN analytical instrument (Beckman). Creatinine clearance was evaluated as follows:
After serum creatinine measurement, rats were placed in urinary metabolic cages for 24 hours to collect urine. Urinary creatine concentration (Ucr) was measured by a creatinine analytical instrument, and total volume of urination (Uvol) was also measured. Creatinine clearance (CCr) was calculated by the following formula: [formula]

[5] = test system: kidney disease model rats; experiment: Action to survival time of kidney diseased animals; assay type: in vivo, Sprague-Dawley female rats; details: 20 mg/kg/day per os, observation eight weeks (upper limit); control 5.0
Protocol: The kidney disease model rats were prepared as in Example 115. Twenty-five groups (8 rats per group) were prepared in a manner so that there was no major difference between the groups in the serum creatinine value and the urea nitrogen value indicating renal function. The rats in each group were allowed to freely take up feed and water. […] To the rats in the control group, only water was forcedly administered per os every day. If kidney diseases are aggravated, the rat will die of uremia. Thus, the survival time was observed as comprehensive indication of the improvement effect on the kidney diseases. The observation period was eight weeks. Thus if all rats survived, the average survival time is eight weeks and it is an upper limit.

renal dysfunction = details: in vivo; cited from earlier work
[6] = mice, single oral 500 mg/kg, observed for 6 days, 5 per group
[7] = 100 μM, AT2, bovine cerebellar cortex, 37° C. 1 hour

Row | Compound | Blood pressure [1] [mmHg] | Number of deaths/number of survivals (mice; [6]) | IC50 [2] [µM] | inhibition at 100 µM [3] [%] | Creatinine clearance [4] [mL/min] | Creatinine [4] [mg/dL] | Urea nitrogen [4] [mg/dL] | Average survival time [5] [weeks] | Number of deaths/number of survivals (mice; mouse, in vivo, po, 500 mg/kg) | inhibition at 100 µM [2] [%] | inhibition at 100 µM [3, 7] [%] | IC50 ([2]; tracer 3H angiotensin II, room temperature 3 hours, read-out: IC50 AT1) [µM] | Blood pressure (renal dysfunction) | progress of renal dysfunction (renal dysfunction)
1 | CCCCC(=O)Nc1ccc(C(=O)N(CC)CC)cc1NCc1ccc(-c2ccccc2-c2nn[nH]n2)cc1 [Compound No. 586, [3-[[2'-(1H-tetrazol-5-yl)biphenyl-4-yl]methylamino]-4-valeramido]benzoic acid diethylamide] | 198 | 0/5 | 1.2 | 0 | 0.33 | 1.7 | 76 | 6.8 | – | – | – | – | – | –
2 | CCCCC(=O)N(Cc1ccc(C(=O)O)cc1)c1cc(C(=O)N2CCOCC2)ccc1C(C)C [Compound No. 372, 3-N-[[(4-carboxyphenyl)methyl]valeramido]-4-isopropylbenzoicacid morpholide] | 190 | – | – | – | 0.36 | 1.7 | 72 | 7.6 | 0/5 | 2 | 0 | – | – | –
3 | CCCCC(=O)Nc1ccc(C(=O)N2CCOCC2)cc1OCc1ccc(-c2ccccc2-c2nnn[nH]2)cc1 [Compound No. 587, 3-[[2'-(1H-tetrazol-5-yl)biphenyl-4-yl]methyloxy]-4-valeramidobenzoic acid morpholide] | 201 | 0/5 | – | – | 0.34 | 1.7 | 77 | 7.0 | – | – | 0 | 7.9 | – | –
4 | CCCCCN(Cc1ccc(C(=O)O)cc1)c1cc(C(=O)N2CCOCC2)ccc1N(C)C [Compound No. 252, 4-dimethylamino-3-[N-(4-carboxyphenyl)methyl]-n-amylaminobenzoic acid morpholide] | 200 | – | – | – | 0.28 | 1.7 | 73 | 7.0 | 0/5 | 34 | 0 | – | – | –
5 | CCCCC(=O)N(Cc1ccc(C(=O)O)cc1)c1cc(C(=O)N2CCOCC2)ccc1C [Compound No. 278, 4-methyl-3-N-[[4-(carboxyphenyl)methyl]valeramido]benzoic acid morpholide] | 198 | – | – | – | 0.36 | 1.8 | 73 | 7.0 | 0/5 | 4 | 0 | – | – | –
6 | C[C@H](CS)C(=O)N1CCC[C@H]1C(=O)O [captoril] | – | – | – | – | – | – | – | – | – | – | – | – | blood pressure is lowered | the progress of renal dysfunction is improved
7 | CCCCCN(C)c1ccc(S(=O)(=O)N2CCOCC2)cc1NCc1ccc(C(=O)O)cc1 [Compound No. 596, 4-[[4-(N-n-amyl-N-methyl)amino-3-[(4-carboxyphenyl)methyl]aminobenzene]sulfonyl]morpholine] | 198 | – | – | – | 0.34 | 1.6 | 78 | 6.0 | 0/5 | 22 | 0 | – | – | –
8 | CCCCCN(C)c1ccc(S(=O)(=O)N2CCOCC2)cc1NCc1ccc(-c2ccccc2-c2nn[nH]n2)cc1 [Compound No. 595, 4-[[4-(N-n-amyl-N-methyl)amino-3-[[2'-(1H-tetrazol-5-yl)biphenyl-4-yl]methyl]aminobenzene]sulfonyl]morpholine] | 198 | – | – | – | 0.38 | 1.5 | 73 | 7.6 | 0/5 | 41 | 0 | – | – | –
9 | CCOC(=O)[C@H](CCc1ccccc1)N[C@@H](C)C(=O)N1CCC[C@H]1C(=O)O [enalapril] | – | – | – | – | – | – | – | – | – | – | – | – | blood pressure is lowered | the progress of renal dysfunction is improved
10 | CCCCC(=O)N(Cc1ccc(C(=O)O)cc1)c1cc(C(=O)N2CCOCC2)ccc1N(C)C [Compound No. 184, 3-N-[[(4-carboxyphenyl)methyl]valeramido]-4-dimethylaminobenzoic acid morpholide] | 195 | – | – | – | 0.38 | 1.5 | 70 | 7.6 | 0/5 | 0 | 0 | – | – | –
